Reference: patent US20240381872A1, “SUBSTITUTED 2,3-DIHYDRO[1,3]THIAZOLO[4,5-B]PYRIDINES, SALTS THEREOF AND THEIR USE AS HERBICIDALLY ACTIVE SUBSTANCES” (BAYER AKTIENGESELLSCHAFT, priority 2021, published 2024)

Legend:
Format in all cases: in vivo
[1] = test system: Echinochloa crus-galli (ECHCG); experiment: Herbicidal pre-emergence action, section A (Table A3); details: application rate 1280 g/ha, visual grading after ca. 3 weeks vs untreated controls; for pest or weed control at 1280 g/ha: Echinochloa crus-galli, pre-emergence, 504 h, read-out: pre-emergence activity against ECHCG in %
Excerpt: (§1) Seeds of mono- and dicotyledonous weed plants were sown in plastic pots (double sowings with one species of mono- and one species of dicotyledonous weed plants per pot), in sandy loam, and covered with soil. The compounds according to the invention, formulated in the form of wettable powders (WP) or as emulsifiable concentrates (EC), were applied to the surface of the covering soil as aqueous suspension or emulsion, with the addition of 0.5% of an additive, at an application rate of 600 l of water per hectare (converted). Following treatment, the pots were placed in a greenhouse and kept under optimum growth conditions for the test plants. The visual grading of the damage to the test plants was carried out after ca. 3 weeks in comparison to untreated controls (herbicidal effect in percent (%): 100% effect=plants have died off, 0% effect=as control plants).

[2] = test system: Poa annua (POAAN); experiment: Herbicidal pre-emergence action, section A (Table A7); details: visual grading after ca. 3 weeks vs untreated controls; for pest or weed control at 320 g/ha: Poa annua, pre-emergence, 504 h, read-out: pre-emergence activity against POAAN in %
Excerpt: as §1

[3] = test system: Setaria viridis (SETVI); experiment: Herbicidal pre-emergence action, section A (Table A8)
Excerpt: as §1

[4] = test system: Amaranthus retroflexus (AMARE); experiment: Herbicidal pre-emergence action, section A (Table A11); details: for pest or weed control at 320 g/ha: Amaranthus retroflexus, 504 h, read-out: pre-emergence activity against AMARE in %
Excerpt: as §1

[5] = test system: Kochia scoparia (KCHSC); experiment: Herbicidal post-emergence action, section B (Table B4); details: application rate 1280 g/ha, visual rating about 3 weeks after treatment vs untreated controls
Protocol: (§2) Seeds of mono- and dicotyledonous weed plants were placed in plastic pots in sandy loam soil (doubly sown with in each case one species of mono- or dicotyledonous weed plants per pot), covered with soil and cultivated in a greenhouse under controlled growth conditions. 2 to 3 weeks after sowing, the test plants were treated at the one-leaf stage. The compounds of the invention, formulated in the form of wettable powders (WP) or as emulsion concentrates (EC), were applied onto the green parts of the plants as aqueous suspension or emulsion with addition of 0.5% additive at a water application rate of 600 liters per hectare (converted). After the test plants had been kept in the greenhouse under optimum growth conditions for about 3 weeks, the activity of the preparations was rated visually in comparison to untreated controls. For example, 100% activity=the plants have died, 0% activity=like control plants.

[6] = test system: Stellaria media (STEME); experiment: Herbicidal post-emergence action, section B (Table B9); details: application rate 1280 g/ha; visual rating about 3 weeks after treatment vs untreated controls
Protocol: as §2

[7] = test system: Amaranthus retroflexus (AMARE); experiment: Herbicidal post-emergence action, section B (Table B11); details: application rate 1280 g/ha, visual rating about 3 weeks after treatment vs untreated controls
Protocol: as §2

[8] = test system: Lolium rigidum (LOLRI); experiment: Herbicidal pre-emergence action, section A (Table A5); details: application rate 1280 g/ha, visual grading after ca. 3 weeks vs untreated controls; for pest or weed control at 1280 g/ha: Lolium rigidum, pre-emergence, 504 h, read-out: pre-emergence activity against LOLRI in %
Excerpt: as §1

[9] = test system: Stellaria media (STEME); experiment: Herbicidal pre-emergence action, section A (Table A9); details: for pest or weed control at 1280 g/ha / pre-emergence activity against STEME in %: application rate 1280 g/ha
Excerpt: as §1

[10] = test system: Veronica persica (VERPE); experiment: Herbicidal pre-emergence action, section A (Table A10); details: application rate 1280 g/ha; for pest or weed control at 1280 g/ha: Veronica persica, 504 h, read-out: pre-emergence activity against VERPE in %
Excerpt: as §1

[11] = test system: Digitaria sanguinalis (DIGSA); experiment: Herbicidal pre-emergence action, section A (Table A12); details: for pest or weed control at 1280 g/ha / pre-emergence activity against DIGSA in %: application rate 1280 g/ha
Excerpt: as §1

[12] = test system: Veronica persica (VERPE); experiment: Herbicidal post-emergence action, section B (Table B10); details: application rate 1280 g/ha, visual rating about 3 weeks after treatment vs untreated controls
Protocol: as §2

[13] = test system: Kochia scoparia (KCHSC); experiment: Herbicidal pre-emergence action, section A (Table A4); details: visual grading after ca. 3 weeks vs untreated controls; for pre-emergence activity against KCHSC in %: application rate 1280 g/ha
Excerpt: as §1

[14] = test system: Poa annua (POAAN); experiment: Herbicidal post-emergence action, section B (Table B7); details: application rate 1280 g/ha; visual rating about 3 weeks after treatment vs untreated controls
Protocol: as §2

[15] = test system: Matricaria inodora (MATIN); experiment: Herbicidal pre-emergence action, section A (Table A6); details: Tripleurospermum inodorum, pre-emergence, 504 h; application rate 1280 g/ha; visual grading after ca. 3 weeks vs untreated controls; read-out: pre-emergence activity against MATIN in %
Excerpt: as §1

[16] = Setaria viridis, 504 h, application rate 320 g/ha, read-out: pre-emergence activity against SETVI in %
[17] = Stellaria media, 504 h, read-out: pre-emergence activity against STEME in %
[18] = Digitaria sanguinalis, 504 h, read-out: pre-emergence activity against DIGSA in %

Fc1c(Cl)cccc1-c1nc2c(cc1Br)SCN2 [Example I-103]
100%: pre-emergence activity against POAAN in % ([2]; application rate 1280 g/ha) | pre-emergence activity against SETVI in % ([3]; application rate 1280 g/ha)
90%: pre-emergence activity against ECHCG in % [1] | pre-emergence activity against AMARE in % ([4]; application rate 1280 g/ha) | post-emergence activity against KCHSC in % [5] | post-emergence activity against STEME in % [6]

Cc1cccc(-c2nc3c(cc2Br)SCN3B(N)N)c1C [Example I-105]
90%: post-emergence activity against AMARE in % [7]

Cc1ccccc1-c1nc2c(cc1C)[S+]([O-])CN2C(=O)C1CC1 (stereo not shown) [Example I-063]
100%: pest or weed control at 1280 g/ha [1] | pest or weed control at 1280 g/ha [8] | pest or weed control at 320 g/ha ([2]; application rate 320 g/ha) | pest or weed control at 320 g/ha [3, 16] | pest or weed control at 1280 g/ha [11, 18]
90%: pest or weed control at 1280 g/ha [9, 17] | pest or weed control at 1280 g/ha [10] | pest or weed control at 320 g/ha ([4]; application rate 320 g/ha) | pest or weed control at 1280 g/ha ([5]; Bassia scoparia, post-emergence, 504 h, read-out: post-emergence activity against KCHSC in %) | pest or weed control at 1280 g/ha ([12]; Veronica persica, post-emergence, 504 h, read-out: post-emergence activity against VERPE in %)

COCCOCCOCC(=O)N1CSc2cc(C)c(-c3cccc(F)c3F)nc21 [Example I-149]
100%: pre-emergence activity against ECHCG in % [1] | pre-emergence activity against POAAN in % ([2]; application rate 1280 g/ha) | pre-emergence activity against SETVI in % ([3]; application rate 320 g/ha) | pre-emergence activity against DIGSA in % [11]
90%: pre-emergence activity against KCHSC in % [13] | pre-emergence activity against LOLRI in % [8] | pre-emergence activity against STEME in % [9] | pre-emergence activity against VERPE in % [10] | pre-emergence activity against AMARE in % ([4]; application rate 320 g/ha) | post-emergence activity against POAAN in % [14]

CCc1ccccc1-c1nc2c(cc1Br)SCN2B(N)N [Example I-080]
100%: pre-emergence activity against DIGSA in % [11]
90%: post-emergence activity against AMARE in % [7]

N#CCS(=O)(=O)N1CSc2cc(Br)c(-c3cccc(Cl)c3F)nc21 [Example I-131]
90%: pre-emergence activity against STEME in % [9] | pre-emergence activity against AMARE in % ([4]; application rate 1280 g/ha) | post-emergence activity against VERPE in % [12] | post-emergence activity against AMARE in % [7]

COC(=O)CCC(=O)N1CSc2cc(C)c(-c3ccc(F)cc3F)nc21 [Example I-084]
100%: pre-emergence activity against ECHCG in % [1] | pre-emergence activity against LOLRI in % [8] | pre-emergence activity against POAAN in % ([2]; application rate 320 g/ha) | pre-emergence activity against SETVI in % ([3]; application rate 320 g/ha) | pre-emergence activity against DIGSA in % [11]
90%: pre-emergence activity against KCHSC in % [13] | pre-emergence activity against AMARE in % ([4]; application rate 1280 g/ha) | post-emergence activity against KCHSC in % [5] | post-emergence activity against STEME in % [6] | post-emergence activity against VERPE in % [12] | post-emergence activity against AMARE in % [7]

CCC(=O)N1C[S+]([O-])c2cc(C)c(-c3cc(F)ccc3F)nc21 (stereo not shown) [Example I-167]
90%: pest or weed control at 1280 g/ha [15] | pest or weed control at 1280 g/ha ([3]; Setaria viridis, 504 h, application rate 1280 g/ha, read-out: pre-emergence activity against SETVI in %) | pest or weed control at 320 g/ha ([9]; Stellaria media, 504 h, application rate 320 g/ha, read-out: pre-emergence activity against STEME in %) | pest or weed control at 1280 g/ha [10] | pest or weed control at 320 g/ha ([4]; application rate 320 g/ha)
100%: pest or weed control at 1280 g/ha [1] | pest or weed control at 1280 g/ha [8] | pest or weed control at 320 g/ha ([2]; application rate 320 g/ha) | pest or weed control at 1280 g/ha [11, 18]

CCC(=O)N1C[S+]([O-])c2cc(C)c(-c3ccc(F)cc3F)nc21 (stereo not shown) [Example I-053]
90%: pest or weed control at 320 g/ha ([13]; Bassia scoparia, pre-emergence, 504 h, application rate 320 g/ha, read-out: pre-emergence activity against KCHSC in %) | pest or weed control at 1280 g/ha [15] | pest or weed control at 1280 g/ha [9, 17] | pest or weed control at 1280 g/ha [10] | pest or weed control at 320 g/ha ([4]; application rate 320 g/ha) | pest or weed control at 1280 g/ha ([7]; Amaranthus retroflexus, post-emergence, 504 h, read-out: post-emergence activity against AMARE in %)
100%: pest or weed control at 1280 g/ha [1] | pest or weed control at 1280 g/ha [8] | pest or weed control at 320 g/ha ([2]; application rate 320 g/ha) | pest or weed control at 320 g/ha [3, 16] | pest or weed control at 320 g/ha ([11]; Digitaria sanguinalis, 504 h, application rate 320 g/ha, read-out: pre-emergence activity against DIGSA in %)
